Measurements from patent publication EP2698385A1, “Detection of synthetic cannabinoids” (priority 2012, dated 2014).
Read-outs that look alike come from different tables or passages of the source.

Columns and labels:
Format in all cases: binding, sheep
Antibody to Immunogen I = details: Cross-reactants at 100 ng/ml, Antibody to Immunogen I
Procedure: (§1) An aqueous solution of each immunogen was formulated with Freund's Complete Adjuvant (FCA) to form an emulsion consisting of 2mg/ml* immunogen in 50% (v/v) FCA. Three sheep were immunised with this emulsion (1° immunisation), 0.25ml being intramuscularly injected at each of four sites in the flank of each animal. Subsequent immunizations (boosts) contained 1mg/ml* immunogen. All boosts were emulsified in 50% (v/v) Freund's Incomplete Adjuvant (FIA) and were administered in the same manner as the 1° immunisation, at monthly intervals. Blood sampling took place 7 to 14 days after each boost. *The general procedure for immunogen administration is outlined above, however, it was necessary to deviate from this protocol in some cases, due to reduced immunogen concentrations (Immunogens II, IV, VII and VIII) and/or amount available (Immunogen VIII). Any deviations from the protocol described are outlined in Table 1A below and highlighted in bold. Table 1A: Amount and volume of immunogens administered for primary and subsequent boosts
(§2) The wells of an enhanced binding 96 well polystyrene microtiter plate were coated with IgG fraction of antiserum raised to Immunogen I or II, diluted in 10mM Tris, pH8.5 (125µl/well). The appropriate antibody coating dilution was determined using standard ELISA checkerboard techniques. The plate was incubated overnight at 4°C, washed 4 times over 10 minutes with Tris buffered saline containing Tween 20 (TBST) and tapped dry. Standard solutions (JWH-018 for Immunogens I and II) were applied at 0, 0.625, 1.25, 2.5, 5, 10, 20 and 40ng/ml and 50µl of each was added to the appropriate wells. 75µl of conjugate (appropriate hapten-HRP) diluted in Tris buffer (pH 7.2) containing EDTA, D-mannitol, sucrose, thimerosal and BSA, was added to each of the wells. The appropriate dilution of conjugate was also determined using standard ELISA checkerboard techniques. The plate was incubated at 25°C for 1 hour. Excess unbound conjugate was removed by washing 6 times over a 10 minute period with TBST. 125µl of tetramethylbenzidine (TMB) substrate solution was added to each well of the plate that was then incubated for 20 minutes in the dark at room temperature. The reaction was terminated by addition of 125µl 0.2M H2SO4 to each well. The absorbance was then measured at 450nm using a microtiter plate reader. The data are inputted to a computer program called 'KC Junior'. It is a 4 parameter fit curve and allow the calculatation of concentrations between the standard runs. This program is used to calculate the IC50s by dividing the 0ng/ml OD value by 2 and obtaining the concentration value from the curve for this OD.
In a similar manner to that described above, the wells of a 96-well microtiter plate were coated with the IgG fraction of the antiserum raised to Immunogens I or II. Standard solutions (JWH-018 for Immunogen I and II) were applied at 0, 0.625, 1.25, 2.5, 5, 10, 20 and 40ng/ml and conjugate was employed as detection reagent.
(§3) The data set our in Tables 3 and 4 are generated using antibodies raised against the indicated Immunogens in a competitive binding assay with the indicated tracers, using the indicated standards: Table 2
(§4) A450 = absorbance at 450nm B = absorbance at 450nm at xng/ml standard concentration B0 = absorbance at 450nm at 0ng/ml standard concentration IC50 = standard concentration which produces 50% B/B0
(§5) In order to determine the specificity of the competitive ELISAs, standard solutions of a range of structurally similar synthetic cannabinoids and their metabolites were prepared in TBST. Using the calibration curves generated and employing a single level of cross reactants, these were used to determine the cross-reactivity of each immunoassay with these substances. […]

Antibody to Immunogen IV = details: Cross-reactants at 100 ng/ml, Antibody to Immunogen IV
Procedure: as §1, §2
(§6) In a similar manner to that described above, the wells of a 96-well microtiter plate were coated with the IgG fraction of the antiserum raised to Immunogens IV, VII or VIII. Standard solutions (JWH-018 for Immunogens IV and VIII, JWH-015 for Immunogen VII) were prepared in TBST at 0, 1.25, 2.5, 5, 10, 20, 40 and 80ng/ml and conjugate was employed as detection reagent.
as §3, §4, §5

[1] = tested on: Antibody to Immunogen VII; details: Cross-reactants at 100 ng/ml, Antibody to Immunogen VII
Procedure: as §1, §2, §6, §3, §4, §5

[2] = tested on: Antibody to Immunogen VIII; details: Cross-reactants at 100 ng/ml, Antibody to Immunogen VIII
Procedure: as §1, §2, §6, §3, §4, §5

[3] = listed as YWH-081 7-methoxynaphthyl isomer (JWH-164)

CCCCCn1cc(C(=O)Cc2ccccc2Cl)c2ccccc21 [JWH-203]
%B/B0 (Antibody to Immunogen I): 72.55% | %B/B0 (Antibody to Immunogen IV): 52.15% | %B/B0 [1]: 99.08% | %B/B0 [2]: 9.19%

CCCCn1cc(C(=O)c2ccc(OC)cc2)c2ccccc21 [RCS-4-C4 homologue]
%B/B0 (Antibody to Immunogen I): 76.27% | %B/B0 (Antibody to Immunogen IV): 27.17% | %B/B0 [1]: 100.20% | %B/B0 [2]: 9.54%

COc1cccc(CC(=O)c2cn(CCC3CCCCC3)c3ccccc23)c1 [RCS-8 3-methoxy isomer]
%B/B0 (Antibody to Immunogen I): 93.24% | %B/B0 (Antibody to Immunogen IV): 89.43% | %B/B0 [1]: 93.73% | %B/B0 [2]: 83.62%

CCCCCn1ccc(C(=O)c2cccc3ccccc23)c1 [JWH-030]
%B/B0 (Antibody to Immunogen I): 61.17% | %B/B0 (Antibody to Immunogen IV): 93.17% | %B/B0 [1]: 89.66% | %B/B0 [2]: 94.25%

COc1ccccc1CC(=O)c1cn(CCC2CCCCC2)c2ccccc12 [RCS-8 (SR-18), RCS-8]
%B/B0 (Antibody to Immunogen I): 82.65% | %B/B0 (Antibody to Immunogen IV): 85.50% | %B/B0 [1]: 94.57% | %B/B0 [2]: 88.79%

COc1ccccc1CC(=O)c1cn(CCCCCC(=O)O)c2ccccc12 [JWH 250 N-(5-carboxypentyl) metabolite]
%B/B0 (Antibody to Immunogen I): 86.21% | %B/B0 (Antibody to Immunogen IV): 89.88% | %B/B0 [1]: 97.60% | %B/B0 [2]: 89.30%

COc1ccc(C(=O)c2c(C)n(CCN3CCOCC3)c3cc(I)ccc23)cc1 [AM-630 (other name 6-Iodopravadoline), 6-Iodopravadoline]
%B/B0 (Antibody to Immunogen I): 91.12% | %B/B0 (Antibody to Immunogen IV): 90.17% | %B/B0 [1]: 99.88% | %B/B0 [2]: 89.88%

CCCCCn1cc(C(=O)Cc2ccccc2C)c2ccccc21 [JWH-251]
%B/B0 (Antibody to Immunogen I): 68.01% | %B/B0 (Antibody to Immunogen IV): 42.02% | %B/B0 [1]: 96.74% | %B/B0 [2]: 9.12%

CCCCCn1cc(C(=O)Cc2ccccc2OC)c2ccccc21 [JWH-250]
%B/B0 (Antibody to Immunogen I): 78.94% | %B/B0 (Antibody to Immunogen IV): 41.08% | %B/B0 [1]: 97.23% | %B/B0 [2]: 9.40%

COc1ccc(C(=O)c2c(C)n(CCN3CCOCC3)c3ccccc23)cc1 [WIN-48,098 (other name Pravadoline), Pravadoline]
%B/B0 (Antibody to Immunogen I): 90.05% | %B/B0 (Antibody to Immunogen IV): 91.64% | %B/B0 [1]: 92.41% | %B/B0 [2]: 97.90%

(+-)-CP 55,940 [((+-)-CP 55,940)]
%B/B0 (Antibody to Immunogen I): 100.61% | %B/B0 (Antibody to Immunogen IV): 94.60% | %B/B0 [1]: 100.25% | %B/B0 [2]: 100.25%

COc1ccccc1CC(=O)c1cn(CCCCCO)c2ccccc12 [JWH 250 N-(5-hydroxypentyl) metabolite]
%B/B0 (Antibody to Immunogen I): 75.47% | %B/B0 (Antibody to Immunogen IV): 76.22% | %B/B0 [1]: 96.13% | %B/B0 [2]: 42.79%

CCCCCn1cc(C(=O)Cc2cccc(C)c2)c2ccccc21 [JWH 251 3-methylphenyl isomer]
%B/B0 (Antibody to Immunogen I): 85.90% | %B/B0 (Antibody to Immunogen IV): 51.15% | %B/B0 [1]: 99.32% | %B/B0 [2]: 8.97%

JWH 203 3-chloro isomer [JWH 203 3-chloro isomer (JWH-237)]
%B/B0 (Antibody to Immunogen I): 95.59% | %B/B0 (Antibody to Immunogen IV): 55.09% | %B/B0 [1]: 97.42% | %B/B0 [2]: 10.34%

CCCCCCCC(C)(C)c1ccc([C@H]2CCC[C@@H](O)C2)c(O)c1 [CP-49,497-C8-homologue]
%B/B0 (Antibody to Immunogen I): 101.11% | %B/B0 (Antibody to Immunogen IV): 94.66% | %B/B0 [1]: 98.55% | %B/B0 [2]: 104.88%

CCCCCn1cc(C(=O)c2ccc3ccccc3c2)c2ccccc21 [JWH 018 2'-naphthyl isomer]
%B/B0 (Antibody to Immunogen I): 75.90% | %B/B0 (Antibody to Immunogen IV): 28.13% | %B/B0 [1]: 94.98% | %B/B0 [2]: 14.94%

CCCCn1c(O)c(C(=O)c2cccc3ccccc23)c2ccccc21 [JWH-073 2-hydroxyindole metabolite]
%B/B0 (Antibody to Immunogen I): 89.62% | %B/B0 (Antibody to Immunogen IV): 89.63% | %B/B0 [1]: 92.65% | %B/B0 [2]: 93.42%

CCCCCn1cc(C(=O)c2cccc3ccc(OC)cc23)c2ccccc21 [JWH-164 (JWH-081 7-methoxynaphthyl isomer), JWH-081 7-methoxynaphthyl isomer]
%B/B0 (Antibody to Immunogen I): 91.86% | %B/B0 (Antibody to Immunogen I; [3]): 88.26% | %B/B0 (Antibody to Immunogen IV): 36.14% | %B/B0 (Antibody to Immunogen IV; [3]): 39.20% | %B/B0 [1]: 96.13% | %B/B0 [1, 3]: 97.60% | %B/B0 [2]: 57.93% | %B/B0 [2, 3]: 59.51%

CCCCCCC(C)(C)c1cc(O)c2c(c1)OC(C)(C)[C@H]1CC=C(CO)C[C@H]21 [HU-211 (Dexanabinol), Dexanabinol]
%B/B0 (Antibody to Immunogen I): 103.36% | %B/B0 (Antibody to Immunogen IV): 93.37% | %B/B0 [1]: 96.78% | %B/B0 [2]: 92.70%

CCCCn1cc(C(=O)c2ccc(C)c3ccccc23)c2ccccc21 [JWH-073 4-methylnaphthyl analogue]
%B/B0 (Antibody to Immunogen I): 45.54% | %B/B0 (Antibody to Immunogen IV): 7.01% | %B/B0 [1]: 78.36% | %B/B0 [2]: 19.75%

COc1ccc(C(=O)c2cn(CCCCCO)c3ccccc23)cc1 [RCS-4 N-(5-hydroxypentyl) metabolite]
%B/B0 (Antibody to Immunogen I): 59.51% | %B/B0 (Antibody to Immunogen IV): 61.03% | %B/B0 [1]: 94.55% | %B/B0 [2]: 19.13%

CCCCCn1cc(C(=O)c2cccc(OC)c2)c2ccccc21 [RCS-4 3-methoxy isomer]
%B/B0 (Antibody to Immunogen I): 31.19% | %B/B0 (Antibody to Immunogen IV): 25.65% | %B/B0 [1]: 94.72% | %B/B0 [2]: 10.95%

CS(=O)(=O)O.Cc1c(C(=O)c2cccc3ccccc23)c2cccc3c2n1[C@@H](CN1CCOCC1)CO3 [Win 55,212-3 mesylate, Win 55,212-3]
%B/B0 (Antibody to Immunogen I): 34.00% | %B/B0 (Antibody to Immunogen IV): 94.57% | %B/B0 [1]: 32.31% | %B/B0 [2]: 101.30%
